We go through 41 compounds from US6313132A, “Therapeutically active diarylpropylamines; their pharmaceutically acceptable salts; a method for their preparation and method for their use” (Pharmacia AB, priority 1999, dated 2001).

In this experiment the target is T1, muscarinic receptor (Cavia porcellus, UniProt H0W1Z3).
T1 construct: Smooth muscle strips of the urinary bladder were dissected in a Krebs-Henseleit solution; from tissue; host or cells: guinea pig urinary bladder smooth muscle strips
In words: Functional in vitro studies: antagonism of carbachol-induced contraction of urinary bladder smooth muscle strips. Format: cell-based, guinea pig.

[1] abbreviates: male guinea pig urinary bladder strips, carbachol agonist, 60 min incubation with antagonist, Krebs-Henseleit pH 7.4, 37° C., KB from dose ratios (Schild), read-out: KB-value.
[2] abbreviates: male guinea pig urinary bladder strips, carbachol agonist, 60 min incubation with antagonist, Krebs-Henseleit pH 7.4, 37° C., KB from dose ratios (Schild), 60 min, read-out: KB-value.

Structures are written as SMILES. Where a name gives a salt, the structure may show the parent alone. Read-outs that look alike come from different tables or passages of the source.

T1 sequence (H0W1Z3 1-590): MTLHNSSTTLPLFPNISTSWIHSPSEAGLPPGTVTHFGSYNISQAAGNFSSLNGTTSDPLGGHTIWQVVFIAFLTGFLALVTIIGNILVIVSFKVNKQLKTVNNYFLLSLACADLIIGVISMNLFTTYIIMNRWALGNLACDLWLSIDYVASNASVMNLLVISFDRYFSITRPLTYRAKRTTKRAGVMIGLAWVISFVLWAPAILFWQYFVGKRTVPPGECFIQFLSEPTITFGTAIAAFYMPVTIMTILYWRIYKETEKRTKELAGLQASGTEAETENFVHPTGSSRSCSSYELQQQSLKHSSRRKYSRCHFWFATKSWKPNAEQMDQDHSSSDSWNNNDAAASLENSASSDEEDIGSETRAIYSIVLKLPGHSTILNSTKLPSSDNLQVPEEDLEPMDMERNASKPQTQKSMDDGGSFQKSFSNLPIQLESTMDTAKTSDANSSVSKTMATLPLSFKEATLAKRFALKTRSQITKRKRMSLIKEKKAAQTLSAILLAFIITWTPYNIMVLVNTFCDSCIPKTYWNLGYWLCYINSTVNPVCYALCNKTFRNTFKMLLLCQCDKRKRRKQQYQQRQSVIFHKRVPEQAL
Protocol: Functional in Vitro Studies
Male guinea pigs, weighing about 300 g, were killed by a blow on the neck and exsanguinated. Smooth muscle strips of the urinary bladder were dissected in a Krebs-Henseleit solution (pH 7.4). The strip preparations were vertically mounted between two hooks in thermostatically controlled (37° C.) organ baths (5 ml). One of the hooks was adjustable and connected to a force transducer (FT 03, Grass Instruments). The Krebs-Henseleit solution was continuously bubbled with carbogen gas (93.5% O2 /6.5% CO2) to maintain the pH at 7.4. Isometric tension was recorded by a Grass Polygraph (Model 79D). A resting tension of approximately 5 mN was initially applied on each muscle strip and the preparations were allowed to stabilise for at least 45 min. The resting tension was repeatedly adjusted and the preparations were washed several times during the stabilisation period.
Carbachol (carbamylcholine chloride) was used as the standard muscarinic receptor agonist. In each experiment, the viability of the preparations and the reproducibility of their contractile responses were initially tested by two consecutive additions of a submaximal concentration (3×10^-6 M) of carbachol. A concentration-response curve to carbachol was then generated by cumulative addition of carbachol to the organ-bath (i.e., stepwise increase of the agonist concentration until the maximal contractile response was reached), followed by washing out and a resting period of at least 15 min. before a fix concentration of the test compound (antagonist) was added to the organ-bath. After 60 min. of incubation with the antagonist, a second cumulative concentration-responsecurve to carbachol was generated. Responses were expressed as percent of the maximal response to carbachol. EC50 -values for carbachol in the absence (control) and presence of antagonist were graphically derived and dose ratios (r) were calculated. Dissociation constants, KB, for the antagonists were calculated using equation (1) (Schild, H. I., Br. J. Pharmacol. Chemother. 1949, 4, 277-280), where [A] is the concentration of test compound:

With `CC(=O)NCCCc1ccc(O)c([C@H](CCN(C(C)C)C(C)C)c2ccccc2)c1` [Example 23, (R)-N,N-Diisopropyl-3-[5-3-(acetamidopropyl)-2-hydroxyphenyl]-3-phenylpropanamine hydrochloride], the Kb under setting [1] is 1.05 nM. `COC(=O)c1ccc(O)c([C@H](CCN(C(C)C)C(C)C)c2ccccc2)c1` [Example 9, (R)-N,N-Diisopropyl-3-(2-hydroxy-5-methyloxycarbonyl-phenyl)-3-phenylpropanamine hydrochloride]: the Kb under setting [1] was found to be 3.8 nM. Take `CC(=O)c1ccc(O)c([C@H](CCN(C(C)C)C(C)C)c2ccccc2)c1` [Example 13, (R)-N,N-Diisopropyl-3-(5-acetyl-2-hydroxyphenyl)-3-phenylpropanamine hydrochloride]: the Kb under setting [1] came to 15 nM.

Turning to `CC(C)N(CCC(c1ccccc1)c1nccs1)C(C)C` (centres unmarked) [Example 38, N,N-Diisopropyl-3-phenyl-3-(thiazol-2-yl)propanamine hydrochloride], the Kb under setting [1] amounted to 207 nM. Regarding `CC(C)N(CCC(c1ccccc1)c1ccccc1F)C(C)C` (centres unmarked) [Example 6, N,N-Diisopropyl-3-(2-fluorophenyl)-3-phenylpropanamine hydrochloride], under setting [1], the Kb was found to be 10 nM. The same measure, in the same setting: with `CC(C)N(CCC(c1ccccc1)c1ccccc1C(F)(F)F)C(C)C` (centres unmarked) [Example 4, N,N-Diisopropyl-3-(2-trifluoromethylphenyl)-3-phenylpropanamine hydrochloride] the figure was 132 nM; with `CCN(CC)CCC(c1ccccc1)c1cccs1` (centres unmarked) [Example 50, fumarate], 154 nM. Same read-out and setting: with `CC(C)N(CC[C@H](c1ccccc1)c1cc(CNCCOCCO)ccc1O)C(C)C` [Example 8, (R)-N,N-Diisopropyl-3-[5-(7-hydroxy-2-aza-5-oxaheptyl)-2-hydroxyphenyl]-3-phenylpropanazine di-(S)-mandelate] the figure was 26 nM; with `Cc1csc(C(CCN(C(C)C)C(C)C)c2ccccc2)n1` (centres unmarked) [Example 39, N,N-Diisopropyl-3-(4-methylthiazol-2-yl)-3-phenyl-propanamine hydrochloride], 235 nM. On the same count and under the same terms, with `CC(C)N(CCC(c1ccccc1)c1cnco1)C(C)C` (centres unmarked) [Example 35, N,N-Diisopropyl-3-(oxazol-5-yl)-3-phenylpropanamine hydrochloride] the figure was 1770 nM; with `COc1ccccc1C(CCN(C)C(C)C)c1cccs1` (centres unmarked) [Example 47, N-Isopropyl-N-methyl-3-(2-methoxyphenyl)-3-(2-thienyl)propanamine fumarate], 91 nM. For the compound `CN(CCC(c1ccccc1)c1ccccc1O)C1CCCC1` (centres unmarked) [Example 32, N-Cyclopentyl-N-methyl-3-(2-hydroxyphenyl)-3-phenylpropanamine hydrochloride], under setting [1], the Kb was 36 nM. For `CN(CCC(c1ccccc1)c1cccs1)C1CCCCC1` (centres unmarked) [Example 49, N-Cyclohexyl-N-methyl-3-phenyl-3-(2-thienyl)propanamine hydrochloride], under setting [1], the Kb amounted to 590 nM.

As for `CC(C)N(CCC(c1ccccc1)c1ccccc1CO)C(C)C` (centres unmarked) [Example 10, N,N-Diisopropyl-3-(2-hydroxymethyl)phenyl-3-phenylpropanamine hydrochloride], the Kb under setting [1] is 171 nM.

As to `CC(C)N(CCC(c1ccccc1)c1cccn1C)C(C)C` (centres unmarked) [Example 59, N,N-Diisopropyl-3-(N-methylpyrrol-2-yl)-3-phenylpropanamine fumarate], the Kb under setting [1] stood at 690 nM.

As to `CC(C)N(CCC(c1ccccc1)c1ncco1)C(C)C` (centres unmarked) [Example 37, N,N-Diisopropyl-3-(oxazol-2-yl)-3-phenylpropanamine hydrochloride], under setting [1], the Kb came out at 520 nM. Turning to `CC(C)N(CC[C@H](c1ccccc1)c1cc(C(O)CO)ccc1O)C(C)C` (single isomer, unassigned; (-)) [Example 16, (-)-N,N-Diisopropyl-3(R)-[5-(1(S*),2-dihydroxyethyl) 2-hydroxyphenyl]-3-phenylpropanamine fumarate], the Kb under setting [2] amounted to 32 nM.

With `CC(O)c1ccc(O)c([C@H](CCN(C(C)C)C(C)C)c2ccccc2)c1` (stereo partly drawn) [Example 14, N,N-Diisopropyl-3(R)-[2-hydroxy-5-(1-hydroxyethyl)phenyl]-3-phenylpropanamine fumarate], the Kb under setting [1] worked out at 4.5 nM. Same read-out and setting: with `CC(C)N(CC[C@H](c1ccccc1)c1cc(N)ccc1O)C(C)C` [Example 27, (R)-(N,N-Diisopropyl-3-(5-amino-2-hydroxyphenyl)-3-phenylpropanaminedihydrochloride] the figure was 7.1 nM; with `CN(CCC(c1ccccc1)c1ccccc1O)C1CCC1` (centres unmarked) [Example 31, N-Cyclobutyl-N-methyl-3-(2-hydroxyphenyl)-3-phenylpropanamine hydrochloride], 14 nM. `CC(C)N(CC[C@H](c1ccccc1)c1cc(C(O)CO)ccc1O)C(C)C` (single isomer, unassigned; (+)) [Example 15, (+)-N,N-Diisopropyl-3(R)-[5-(1(R*),2-dihydroxyethyl)-2-hydroxyphenyl]-3-phenylpropanamine fumarate]: the Kb under setting [2] came to 15 nM.

For the compound `CC(C)NCCC(c1ccccc1)c1cc(C(=O)O)ccc1O` (centres unmarked) [Example 20, N-Isopropyl-3-(5-carboxy-2-hydroxyphenyl)-3-phenylpropanamine hydrochloride], the Kb under setting [1] worked out at 3320 nM. Take `CC(C)N(CCC(c1cccnc1)c1ccccc1O)C(C)C` (centres unmarked) [Example 5, N,N-Diisopropyl-3-(2-hydroxyphenyl)-3-(3-pyridyl)-propanamine dihydrochloride]: the Kb under setting [1] was determined as 336 nM.

In the case of `COc1ccccc1C(CCN(C(C)C)C(C)C)c1cccs1` (centres unmarked) [Example 43, N,N-Diisopropylamine-3-(2-methoxyphenyl)-3-(2-thienyl)propanamine, fumarate], under setting [1], the Kb stood at 29 nM. As to `CC(C)N(CCC(c1ccccc1)c1cnc[nH]1)C(C)C` (centres unmarked) [Example 36, N,N-Diisopropyl-3-(imidazol-4(5)-yl)-3-phenylpropanamine dihydrochloride], the Kb was 2640 nM. Turning to `CC(C)N(C)CCC(c1ccccc1)c1cccs1` (centres unmarked) [Example 51, N-Isopropyl-N-methyl-3-phenyl-3-(2-thienyl)propanamine hydrochloride], the Kb under setting [1] was found to be 118 nM. On the same count and under the same terms, with `CC(C)N(CC[C@@H](c1ccccc1)c1cc(CCO)ccc1O)C(C)C` [Example 11, (S)-N,N-Diisopropyl-3-[2-hydroxy-5-(2-hydroxyethyl)phenyl]-3-phenylpropanamine hydrochloride] the figure was 431 nM; with `CCNCc1ccc(O)c([C@H](CCN(C(C)C)C(C)C)c2ccccc2)c1` [Example 30, N,N-Diisopropyl-3-(5-ethylaminomethyl-2-hydroxyphenyl)-3-phenylpropanamine], 139 nM. The same measure, in the same setting: with `CC(C)N(CCC(c1cccs1)c1ccccc1O)C(C)C` (centres unmarked) [Example 41, N,N-Diisopropyl-3-(2-hydroxyphenyl)-3-(2-thienyl)-propanamine fumarate] the figure was 7.6 nM; with `CC(C)N(CC[C@H](c1ccccc1)c1cc(CCCO)ccc1O)C(C)C` [Example 29, (R) -N,N-Diisopropyl-3-[2-hydroxy-5-(3-hydroxypropyl)phenyl]-3-phenylpropanamine hydrochloride], 1.5 nM; with `CC(C)N(CC[C@H](c1ccccc1)c1cc(C=O)ccc1O)C(C)C` [Example 7, (R)-N,N-Diisopropyl-3-(5-formyl-2-hydroxyphenyl)-3-phenylpropanamine hydrochloride], 13 nM. Same read-out and setting: with `CC(C)N(CCC(c1ccccc1)c1cncs1)C(C)C` (centres unmarked) [Example 40, N,N-Diisopropyl-3-(thiazol-5-yl)-3-phenylpropanamine hydrochloride] the figure was 814 nM; with `c1ccc(C(CCN2CCCCC2)c2cccs2)cc1` (centres unmarked) [Example 53, N-[3-Phenyl-3-(2-thienyl)propyl]piperidine hydrochloride], 154 nM; with `Cc1ccc(O)c(C(CCN(C(C)C)C(C)C)c2cccs2)c1` (single isomer, unassigned) [Example 56, (S*) N,N-Diisopropyl-3-(2-hydroxy-5-methylphenyl)-3-(2-thienyl)propanamine], 360 nM. `Cc1ccc(O)c(C(CCN(C(C)C)C(C)C)c2cccs2)c1` (single isomer, unassigned) [Example 55, (R*) N,N-Diisopropyl-3-(2-hydroxy-5-methylphenyl)-3-(2-thienyl)propanamine]: under setting [1], the antagonist equilibrium constant (Kb) was determined as 2 nM. Consider `CC(C)N(CC[C@H](c1ccccc1)c1cc(CCO)ccc1O)C(C)C` [Example 12, (R)-N,N-Diisopropyl-3-[2-hydroxy-5-(2-hydroxyethyl)phenyl]-3-phenylpropanamine hydrochloride], for which, under setting [1], the Kb turned out to be 1.18 nM. For the compound `CC(C)N(CC[C@H](c1ccccc1)c1cc(CCCCCCO)ccc1O)C(C)C` [Example 17, (R)-[N,N-Diisopropyl-3-[2-hydroxy-5-(6-hydroxyhexyl)phenyl]-3-phenylpropanamine hydrochloride], the Kb under setting [1] worked out at 3.5 nM. As for `CC(C)N(CCc1ccc(O)c([C@H](CCN(C(C)C)C(C)C)c2ccccc2)c1)C(C)C` [Example 18, (R)-N,N-Diisopropyl-3-[5-(2-diisopropylaminoethyl)-2-hydroxyphenyl]-3-phenylpropanamine hydrochloride], under setting [1], the Kb was found to be 172 nM. As to `COc1cccc(C(CCN(C(C)C)C(C)C)c2cccs2)c1` (centres unmarked) [Example 45, N,N-Diisopropyl-3-(3-methoxyphenyl)-3-(2-thienyl)propanamine hydrochloride], under setting [1], the Kb is 51 nM. The same measure, in the same setting: with `CC(C)N(CCC(c1ccccc1)c1nc2ccccc2o1)C(C)C` (centres unmarked) [Example 34, N,N-Diisopropyl-3-(benzoxazol-2-yl)-3-phenylpropanamine, hydrochloride] the figure was 803 nM.

`Cc1ccc(O)c(C(CCN(CCOCCO)C(C)C)c2ccccc2)c1` (centres unmarked) [Example 1, N-(5-Hydroxy-3-oxapentyl)-N-isopropyl-3-(2-hydroxy-5-methylphenyl)-3-phenylpropanamine hydrochloride]: under setting [1], the Kb worked out at 499 nM.

Usually Kb stands for the equilibrium dissociation constant of an antagonist, usually derived from a functional assay.
